According to patent US11447486B2, “2-amino-benzimidazole derivatives and their use as 5-lipoxygenase and/or prostaglandin E synthase inhibitors” (INSTITUT PASTEUR KOREA, priority 2014, dated 2022):

Columns and labels:
human 5-LOX = target: T1, human 5-LOX (Homo sapiens, UniProt P09917); assay: 5-LOX enzyme activity, fluorescence method (5-HPETE, H2DCFDA); format: biochemical; settings: read-out: 5-LO (IC50)
T1 construct: purchased Cayman 60402; host or cells: insect cells (lysate)
T1 sequence (P09917 1-674): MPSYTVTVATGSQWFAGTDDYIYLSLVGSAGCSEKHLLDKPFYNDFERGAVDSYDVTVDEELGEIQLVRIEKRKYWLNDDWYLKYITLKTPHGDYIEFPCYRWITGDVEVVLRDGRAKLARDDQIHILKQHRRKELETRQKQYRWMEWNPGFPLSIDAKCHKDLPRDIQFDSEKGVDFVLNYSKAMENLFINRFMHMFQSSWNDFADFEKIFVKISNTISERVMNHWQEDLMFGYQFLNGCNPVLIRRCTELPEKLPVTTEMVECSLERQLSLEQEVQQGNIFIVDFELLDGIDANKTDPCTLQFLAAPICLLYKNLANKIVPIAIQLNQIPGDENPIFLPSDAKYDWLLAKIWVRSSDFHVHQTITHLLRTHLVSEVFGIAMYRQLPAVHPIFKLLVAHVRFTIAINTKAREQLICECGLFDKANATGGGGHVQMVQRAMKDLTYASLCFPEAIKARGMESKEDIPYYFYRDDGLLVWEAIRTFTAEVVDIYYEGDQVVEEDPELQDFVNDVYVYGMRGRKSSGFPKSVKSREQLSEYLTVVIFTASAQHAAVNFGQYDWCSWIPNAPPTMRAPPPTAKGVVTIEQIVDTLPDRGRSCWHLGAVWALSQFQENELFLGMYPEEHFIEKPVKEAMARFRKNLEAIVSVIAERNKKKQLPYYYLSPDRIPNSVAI
How it was run: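 Compound (0.5 nM to 10 uM) pre-incubated 5 min with enzyme; reaction started with ATP (100 uM final) and arachidonic acid (3 uM final). All steps at room temperature, fluorescence read-out.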

[1] = system: Rat basophilic leukemia (RBL) cells; assay: LTB4 secretion assay in RBL (rat basophilic leukemia cells); format: cell-based; settings: Rattus norvegicus, RBL
How it was run: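 Cells seeded 2×10^4/well the day before, then pre-incubated 15 min at 37 °C in EMEM/0.5% FBS with compound (5 nM to 100 uM). Stimulation with 2.5 uM arachidonic acid plus 5 uM A23187 (final) for 10 min at 37 °C; LTB4 in supernatant quantified by EIA.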

Rat whole blood (RWB) = assay: LTB4 secretion assay in RWB (rat whole blood); format: cell-based; settings: Rattus norvegicus
How it was run: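 Heparinized blood from male Sprague Dawley rats (6-9 weeks) diluted 1:1 in RPMI, pre-incubated 15 min at 37 °C with compound (2.5 nM to 50 uM). Stimulated with 10 uM calcium ionophore A23187 for 10 min at 37 °C, stopped with ice-cold PBS; LTB4 in supernatant quantified by EIA.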

HeLa S3 cells = assay: PGE2 inhibition assay (HTRF) in TNF-α stimulated HeLa S3 cells; format: cell-based; settings: Homo sapiens; PGE2, 10 uM compound, HeLa S3 stimulated with TNF-α
Method: Human epitheloid cervix carcinoma HeLa S3 cells (2×10^6cells/ml) were seeded with modified F-12K buffer medium pH 7.4 in tissue culture plate and incubated for overnight at 37° C. and 5% CO2. Then medium was changed into new medium contained 10 uM testing compounds or 0.1% DMSO and incubated overnight. After incubation, cells were stimulated with 30 nM TNF-α (Tumor necrosis factor-α) for 16 h. For determination of PGE2, the supernatant was measured by PGE2 HTRF (Homogeneous Time Resolved Fluorescence) assay kit Inhibition of PGE2 by compounds is calculated as a percentage of activity in the presence of drug versus the activity in the stimulator TNF-α.

[2] = target: T2, Human recombinant cyclooxygenase-2 (Homo sapiens, UniProt P35354); assay: COX-2 inhibition assay (EIA); format: biochemical; settings: for inhibition at 10 µM: COX-2, 10 uM compound; for inhibitory effect on cyclooxygenase-2 (COX-2): tested at 10 uM
T2 construct: host or cells: insect Sf21 cells
T2 sequence (P35354 18-604): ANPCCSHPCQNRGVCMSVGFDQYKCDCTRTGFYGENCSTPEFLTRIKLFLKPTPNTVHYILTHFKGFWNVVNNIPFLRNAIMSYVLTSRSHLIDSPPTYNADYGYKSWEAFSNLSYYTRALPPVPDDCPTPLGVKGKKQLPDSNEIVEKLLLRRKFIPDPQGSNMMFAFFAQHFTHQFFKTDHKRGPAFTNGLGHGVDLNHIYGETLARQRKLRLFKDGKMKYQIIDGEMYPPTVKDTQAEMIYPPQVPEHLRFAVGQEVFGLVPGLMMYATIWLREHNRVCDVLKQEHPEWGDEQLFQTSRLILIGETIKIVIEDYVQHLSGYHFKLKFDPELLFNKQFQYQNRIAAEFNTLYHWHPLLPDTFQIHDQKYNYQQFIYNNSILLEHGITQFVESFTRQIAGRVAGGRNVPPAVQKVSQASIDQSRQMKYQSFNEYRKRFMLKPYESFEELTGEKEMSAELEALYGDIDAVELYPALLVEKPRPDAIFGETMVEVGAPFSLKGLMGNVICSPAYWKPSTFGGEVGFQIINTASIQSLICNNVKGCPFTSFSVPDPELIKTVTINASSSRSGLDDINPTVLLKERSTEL
Method: Human recombinant cyclooxygenase-2 expressed in insect Sf21 cells was used. The testing compounds and reference compound (Rofecoxib) were dissolved in DMSO (Sigma, USA) and tested at 10 uM. Test samples were pre-incubated with 0.11 U enzyme in 100 mM modified Tris-HCl buffer pH 7.7 for 15 minutes at 37° C. The reactions were initiated by addition of 0.3 μM arachidonic acid for another 5-minute incubation period, then terminated by further addition of 1 N HCl. An aliquot was then combined with the EIA kit for spectrophotometric determination of the quantity of PGE2 formed. Inhibition % was determined by compared with relative amounts of PGE2 induced by arachidonic acid.

[3] = target: T3, Human 5-lipoxygenase (5-LOX) (Homo sapiens, UniProt P09917); assay: 5-LOX enzyme activity, LTB4 measurement by ELISA; format: biochemical; settings: ELISA method; read-out: 5LO (IC50)
T3 construct: purchased Cayman 60402; host or cells: insect cells
T3 sequence (P09917 1-674): T1 sequence (P09917 1-674)
Method: The activity of compounds against 5-LOX were determined by measuring LTB4 (leukotriene B4) levels and/or by a fluorescence method. Both approaches are outlined in more detail below;
LTB4 Measurement by ELISA:
Human 5-lipoxygenase (5-LOX) (Cayman, Cat #60402) produced in insect cells was pre-incubated with compounds for 5 min at RT in incubation buffer (50 mM Tris-Cl, pH 7.4, 2 mM CaCl2, 0.1 mM ATP, 2% DMSO). Compounds were tested in dose reponse from 0.5 nM to 10 uM. The enzymatic reaction was started by adding arachidonic acid to a final concentration of 3 uM. After 5 min of incubation at 25° C., the reaction was stopped by adding H2O2 to a final concentration of 1 mM. LTB4 levels were quantified using a LTB4 EIA kit (Cayman, Cat #520111) as instructed.

Brown Norway rats = assay: OVA-induced airway inflammation model in Brown Norway rats; format: in vivo, rat; settings: 25, 50, 100 mg/kg p.o. BID, Day 19-21
Description: The objective of this study is to determine the efficacy of compounds in the lungs of ovalbumin (OVA) induced in Brown Norway rats. As with most models of induced allergic asthma, animals are systemically sensitized to specific antigens and then, after a period of time, challenged with the same allergen administered via the airway. Ovalbumin had been used as the standard allergen to sensitize and challenge animals in this study.
Thirty (30) male Brown Norway rats were randomized into 5 groups on the basis of body weight. For sensitization, 1% OVA in PBS solution was mixed with alum solution (with volume ratio of 1:9). All rats in groups 1-5 were sensitized by i.p injection (1 mL/rat) of 1% OVA-alum sensitization solution on day 1, 2 and 3. At day 21, rats in groups 1-5 were challenged with 1% OVA in PBS solution with aerosolizing dosing system for 20 min.
Test compounds were administered by p.o. from days 19-21 of the study as per schedule below:
Group 1: sensitized-vehicle,
Group 2: reference drug dexamethasone, 0.3 mg/kg, p.o., Day 19-21, BID,
Group 3: compound 211, 25 mg/kg, p.o., Day 19-21, BID,
Group 4: compound 211, 50 mg/kg, p.o., Day 19-21, BID,
Group 5: compound 211, 100 mg/kg, p.o., Day 19-21, BID,
On day 22, bronchoalveolar lavage and lung tissues were harvested. Total cell number and differential cell counts in BALF, leukotriene B4 (LTB4) in BALF and lung tissue, histopathology of lung by H&E staining will be evaluated.

IC50 (human 5-LOX) | EC50 [1] | EC50 (Rat whole blood (RWB)) | inhibition at 10 µM [2] | inhibitory effect on cyclooxygenase-2 (COX-2) [2] | melting point | IC50 [3] | Structure (SMILES) | inhibition at 10 µM (HeLa S3 cells) | LTB4 in BALF and Lung (Brown Norway rats) | increase of inflammatory cells including total cell and eosinophils (Brown Norway rats; BALF) | inflammation cell infiltration (Brown Norway rats; lung histopathology)
< 1 µM | < 10 µM | < 10 µM |  |  |  |  | Cn1c(NCc2ccc(Oc3ccc(Cl)cn3)cc2)nc2ccc(NC3COC3)cc21 [Compound 211] | 40 to 70% | reduced | significantly reduced | significantly reduced
< 1 µM | < 10 µM |  | < 1% | do not have an inhibitory effect | > 137.5 °C |  | CC(C)Nc1ccc2[nH]c(NCc3ccc(Oc4ccccc4)cc3)nc2c1 [Compound 95] | > 70% |  |  | 

Continued, molecule first:

Structure (SMILES) | IC50 (human 5-LOX) | EC50 [1] | EC50 (Rat whole blood (RWB)) | inhibition at 10 µM [2] | inhibitory effect on cyclooxygenase-2 (COX-2) [2] | melting point | IC50 [3] | inhibition at 10 µM (HeLa S3 cells) | LTB4 in BALF and Lung (Brown Norway rats) | increase of inflammatory cells including total cell and eosinophils (Brown Norway rats; BALF) | inflammation cell infiltration (Brown Norway rats; lung histopathology)
Nc1ccc2[nH]c(NCc3ccc(-c4ccccc4)cc3)nc2c1 [Compound 90] | < 1 µM | < 10 µM | 10 to 20 µM | < 1% | do not have an inhibitory effect | > 200 °C |  | > 70% |  |  | 
Nc1ccc2[nH]c(NCc3ccc(Oc4ccc(Cl)cc4)cn3)nc2c1 [Compound 14] | < 1 µM | < 10 µM | < 10 µM |  |  |  | < 1 µM |  |  |  | 
Nc1ccc2nc(N)n(CCOc3ccc(OC(F)(F)F)cc3)c2c1 [Compound 48] | < 1 µM | < 10 µM | < 10 µM |  |  |  | 1 to 20 µM |  |  |  | 
Nc1ccc2c(c1)nc(N)n2CCOc1ccc(OC(F)(F)F)cc1 [Compound 49] | > 10 µM | < 10 µM | 10 to 20 µM |  |  |  | 1 to 20 µM |  |  |  | 
